Results reported in ChEMBL document CHEMBL2034935, “Discovery of a Novel Series of CRTH2 (DP2) Receptor Antagonists Devoid of Carboxylic Acids” (ACS Med Chem Lett, 2011).
Each block holds one compound with its values, some of them ahead of it. The source made the active and inactive calls. The rule behind the calls is not given here.

Columns and labels:
[1] = molecular target: T1, Prostaglandin D2 receptor 2 (Homo sapiens, UniProt Q9Y5Y4); experiment: Displacement of [3HPGD2 from human CRTH2 receptor expressed in CHO cell membrane after 90 mins by scintillation proximity assay; type: cell membranes
T1 sequence (Q9Y5Y4 whole entry): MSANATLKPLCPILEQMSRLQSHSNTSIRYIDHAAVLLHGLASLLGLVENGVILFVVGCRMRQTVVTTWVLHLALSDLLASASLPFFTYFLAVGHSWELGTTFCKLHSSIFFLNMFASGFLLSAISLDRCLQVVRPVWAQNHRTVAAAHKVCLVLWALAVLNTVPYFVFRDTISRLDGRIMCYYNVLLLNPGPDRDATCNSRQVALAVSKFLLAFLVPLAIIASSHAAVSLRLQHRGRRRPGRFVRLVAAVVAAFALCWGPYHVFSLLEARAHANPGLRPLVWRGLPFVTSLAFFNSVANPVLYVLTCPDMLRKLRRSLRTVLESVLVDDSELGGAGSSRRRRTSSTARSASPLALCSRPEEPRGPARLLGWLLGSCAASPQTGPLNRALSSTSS

Cytochrome P450 2C9 = Cytochrome P450 2C9 (Homo sapiens, UniProt P11712); experiment: Inhibition of human recombinant CYP2C9 incubated for 15 mins prior to substrate addition measured after 30 mins by spectrophotometry; type: ADME
Cytochrome P450 2C9, sequence (P11712 whole entry): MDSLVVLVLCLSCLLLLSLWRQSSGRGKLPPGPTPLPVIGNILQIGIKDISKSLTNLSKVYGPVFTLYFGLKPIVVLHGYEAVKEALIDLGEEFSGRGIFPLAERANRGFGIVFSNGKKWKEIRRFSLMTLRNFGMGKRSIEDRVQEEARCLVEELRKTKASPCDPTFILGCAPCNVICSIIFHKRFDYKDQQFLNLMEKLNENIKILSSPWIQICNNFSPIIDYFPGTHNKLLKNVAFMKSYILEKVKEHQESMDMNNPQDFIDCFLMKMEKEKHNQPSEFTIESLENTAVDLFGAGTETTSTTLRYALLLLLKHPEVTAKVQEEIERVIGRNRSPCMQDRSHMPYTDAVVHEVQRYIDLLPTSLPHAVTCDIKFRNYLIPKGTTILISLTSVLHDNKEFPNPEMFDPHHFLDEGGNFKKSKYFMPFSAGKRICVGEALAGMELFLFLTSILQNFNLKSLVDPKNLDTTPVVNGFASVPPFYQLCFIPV

[2] = molecular target: T2, Prostaglandin D2 receptor 2 (Homo sapiens) (UniProt Q9Y5Y4); experiment: Antagonist activity at human CRTH2 receptor expressed in CHO cell membrane assessed as inhibition of PGD2-induced [35S]GTPgammaS binding at 2 uM after 30 mins by microbeta scintillation counting relative to control; type: functional, cell membranes
T2 sequence (whole entry): T1 sequence (Q9Y5Y4 whole entry)

[3] = molecular target: T2, Prostaglandin D2 receptor 2 (Homo sapiens); experiment: Agonist activity at human CRTH2 receptor expressed in CHO cell membrane assessed as induction of [35S]GTPgammaS binding at 20 uM after 30 mins by microbeta scintillation counting relative to PGD2; type: functional, cell membranes
[4] = molecular target: T1, Prostaglandin D2 receptor 2; experiment: Antagonist activity at human CRTH2 receptor expressed in CHO cell membrane assessed as inhibition of PGD2-induced [35S]GTPgammaS binding after 30 mins by microbeta scintillation counting; type: functional, cell membranes
[5] = Intrinsic clearance in rat liver microsomes assessed per mg protein at 1 uM up to 45 mins by LC/MS analysis; type: ADME, Microsome; details: read-out: CLH
Cytochrome P450 2C8 = molecular target: T3, Cytochrome P450 2C8 (Homo sapiens, UniProt P10632); experiment: Inhibition of human recombinant CYP2C8 incubated for 15 mins prior to substrate addition measured after 30 mins by spectrophotometry; type: ADME
T3 sequence (P10632 whole entry): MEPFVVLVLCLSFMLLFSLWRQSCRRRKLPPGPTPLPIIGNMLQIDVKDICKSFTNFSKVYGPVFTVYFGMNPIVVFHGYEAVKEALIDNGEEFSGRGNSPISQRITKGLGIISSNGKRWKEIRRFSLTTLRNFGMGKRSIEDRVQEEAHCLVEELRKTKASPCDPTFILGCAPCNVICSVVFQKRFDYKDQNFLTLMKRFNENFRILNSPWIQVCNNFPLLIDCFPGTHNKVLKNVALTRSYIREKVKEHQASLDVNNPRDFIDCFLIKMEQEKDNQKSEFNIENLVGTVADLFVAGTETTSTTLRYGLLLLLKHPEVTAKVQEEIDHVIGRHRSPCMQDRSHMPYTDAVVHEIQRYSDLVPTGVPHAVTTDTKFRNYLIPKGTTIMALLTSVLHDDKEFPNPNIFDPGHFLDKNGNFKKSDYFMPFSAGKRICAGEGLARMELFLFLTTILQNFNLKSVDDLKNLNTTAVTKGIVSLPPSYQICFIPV

[6] = Intrinsic clearance in human liver microsomes assessed per mg protein at 1 uM up to 45 mins by LC/MS analysis; type: ADME, Microsome; details: read-out: CLH
Cytochrome P450 2C19 = Cytochrome P450 2C19 (Homo sapiens, UniProt P33261); experiment: Inhibition of human recombinant CYP2C19 incubated for 15 mins prior to substrate addition measured after 30 mins by spectrophotometry; type: ADME
Cytochrome P450 2C19, sequence (P33261 whole entry): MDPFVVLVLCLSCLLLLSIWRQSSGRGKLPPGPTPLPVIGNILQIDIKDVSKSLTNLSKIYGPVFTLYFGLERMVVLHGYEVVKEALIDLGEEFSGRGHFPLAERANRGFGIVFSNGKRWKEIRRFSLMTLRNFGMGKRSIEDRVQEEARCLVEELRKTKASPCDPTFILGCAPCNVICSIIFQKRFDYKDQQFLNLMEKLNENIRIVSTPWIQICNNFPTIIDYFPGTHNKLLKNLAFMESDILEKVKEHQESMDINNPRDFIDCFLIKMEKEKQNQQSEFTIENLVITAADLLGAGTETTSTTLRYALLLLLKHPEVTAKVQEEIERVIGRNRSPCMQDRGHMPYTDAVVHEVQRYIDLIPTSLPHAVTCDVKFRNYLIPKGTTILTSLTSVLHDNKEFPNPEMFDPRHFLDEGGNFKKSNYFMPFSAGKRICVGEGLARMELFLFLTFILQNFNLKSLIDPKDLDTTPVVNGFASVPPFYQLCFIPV

Ki [1]: 7.6 nM
SMILES: CCC(=O)N(Cc1ccc(OC)cc1)c1cc(F)cc(-c2nnn[nH]2)c1

Ki [1]: 39 nM
SMILES: CCCCC(=O)N(Cc1ccc2ccccc2c1)c1cccc(-c2nnn[nH]2)c1

IC50 (Cytochrome P450 2C9): 1700 nM
inhibition [2]: 85%
Emax [3]: inactive
IC50 [4]: 46 nM
microsomal CLint at 1 µM [5]: 17 µL/min/mg
IC50 (Cytochrome P450 2C8): 79 nM
Ki [1]: 3.2 nM
microsomal CLint at 1 µM [6]: 17 µL/min/mg
IC50 (Cytochrome P450 2C19): 7500 nM
SMILES: CC(C)CC(=O)N(Cc1ccc(S(C)(=O)=O)cc1)c1cc(F)cc(-c2nnn[nH]2)c1

IC50 (Cytochrome P450 2C9): 7400 nM
inhibition [2]: 80%
Emax [3]: 7%
IC50 [4]: 57 nM
microsomal CLint at 1 µM [5]: 40 µL/min/mg
IC50 (Cytochrome P450 2C8): 220 nM
Ki [1]: 5.4 nM
microsomal CLint at 1 µM [6]: 92 µL/min/mg
IC50 (Cytochrome P450 2C19): 12000 nM
SMILES: CS(=O)(=O)c1ccc(CN(C(=O)C2CCCC2)c2cc(F)cc(-c3nnn[nH]3)c2)cc1

Ki [1]: 12 nM
SMILES: CCCC(=O)N(Cc1ccc2c(c1)OCCO2)c1cccc(-c2nnn[nH]2)c1

Ki [1]: 11 nM
SMILES: CCC(=O)N(Cc1ccc2c(c1)OCCO2)c1cc(-c2nnn[nH]2)ccc1F

Ki [1]: 7.1 nM
SMILES: CCCCC(=O)N(Cc1cc2ccccc2o1)c1cc(-c2nnn[nH]2)ccc1F

Ki [1]: 130 nM
SMILES: CCC(=O)N(Cc1ccc2c(c1)OCO2)c1cccc(-c2nnn[nH]2)c1

Ki [1]: 3.3 nM
SMILES: CCCCC(=O)N(Cc1ccc2c(c1)OCCO2)c1cc(-c2nnn[nH]2)ccc1F

Ki [1]: 5.2 nM
SMILES: CCC(=O)N(Cc1ccc(S(=O)(=O)C(F)(F)F)cc1)c1cc(F)cc(-c2nnn[nH]2)c1

Ki [1]: 1800 nM
SMILES: CCC(=O)N(Cc1ccccc1)c1cccc(-c2nnn[nH]2)c1

Ki [1]: 18 nM
SMILES: CCCCC(=O)N(Cc1ccc2ccccc2c1)c1cc(-c2nnn[nH]2)ccc1F

Ki [1]: 22 nM
SMILES: CCC(=O)N(Cc1ccc(O)cc1)c1cc(F)cc(-c2nnn[nH]2)c1

Ki [1]: 580 nM
SMILES: CCC(=O)N(Cc1cccc(C)c1)c1cccc(-c2nnn[nH]2)c1

Ki [1]: 620 nM
SMILES: CCCCC(=O)N(Cc1cccs1)c1cccc(-c2nnn[nH]2)c1

Ki [1]: 10 nM
SMILES: C#Cc1cccc(CN(C(=O)CCCC)c2cc(-c3nnn[nH]3)ccc2F)c1

IC50 (Cytochrome P450 2C9): 340 nM
microsomal CLint at 1 µM [5]: 30 µL/min/mg
IC50 (Cytochrome P450 2C8): 470 nM
Ki [1]: 6.4 nM
microsomal CLint at 1 µM [6]: 1700 µL/min/mg
IC50 (Cytochrome P450 2C19): 900 nM
SMILES: CCC(=O)N(Cc1cccc(OC(C)C)c1)c1cc(F)cc(-c2nnn[nH]2)c1

Ki [1]: 42 nM
SMILES: CCC(=O)N(Cc1ccc2c(c1)OCCO2)c1cccc(-c2nnn[nH]2)c1

Ki [1]: 140 nM
SMILES: C#Cc1cccc(CN(C(C)=O)c2cc(-c3nnn[nH]3)ccc2F)c1

Ki [1]: 17 nM
SMILES: CS(=O)(=O)c1ccc(CN(C(=O)c2ccncc2)c2cc(F)cc(-c3nnn[nH]3)c2)cc1

Ki [1]: 950 nM
SMILES: CCC(=O)N(Cc1ccccc1F)c1cccc(-c2nnn[nH]2)c1

Ki [1]: 360 nM
SMILES: CCC(=O)N(Cc1cccc(OC)c1)c1cccc(-c2nnn[nH]2)c1

IC50 (Cytochrome P450 2C9): > 20000 nM
microsomal CLint at 1 µM [5]: < 10 µL/min/mg
IC50 (Cytochrome P450 2C8): 54 nM
Ki [1]: 3.1 nM
microsomal CLint at 1 µM [6]: < 10 µL/min/mg
IC50 (Cytochrome P450 2C19): 150 nM
SMILES: CCC(=O)N(Cc1ccc(S(C)(=O)=O)cc1)c1cc(F)cc(-c2nnn[nH]2)c1

Ki [1]: 69 nM
SMILES: CCC(=O)N(Cc1ccc(S(C)(=O)=O)cc1)c1cccc(-c2nnn[nH]2)c1

Ki [1]: 2.2 nM
SMILES: CS(=O)(=O)c1ccc(CN(C(=O)c2ccccc2)c2cc(F)cc(-c3nnn[nH]3)c2)cc1

IC50 (Cytochrome P450 2C9): 290 nM
inhibition [2]: 94%
Emax [3]: -10%
IC50 [4]: 3.7 nM
microsomal CLint at 1 µM [5]: 20 µL/min/mg
IC50 (Cytochrome P450 2C8): 50 nM
Ki [1]: 0.9 nM
microsomal CLint at 1 µM [6]: 28 µL/min/mg
IC50 (Cytochrome P450 2C19): 170 nM
SMILES: CS(=O)(=O)c1ccc(CN(C(=O)Cc2ccccc2)c2cc(F)cc(-c3nnn[nH]3)c2)cc1

Ki [1]: 4.9 nM
SMILES: CCCC(=O)N(Cc1ccc2c(c1)OCCO2)c1cc(-c2nnn[nH]2)ccc1F

IC50 (Cytochrome P450 2C9): 2000 nM
inhibition [2]: 106%
Emax [3]: -17%
microsomal CLint at 1 µM [5]: 10 µL/min/mg
IC50 (Cytochrome P450 2C8): 970 nM
microsomal CLint at 1 µM [6]: 55 µL/min/mg
IC50 (Cytochrome P450 2C19): 3700 nM
SMILES: CCC(=O)N(Cc1cccc(O)c1)c1cc(F)cc(-c2nnn[nH]2)c1

Ki [1]: 45 nM
SMILES: CCCCC(=O)N(Cc1ccc2c(c1)OCCO2)c1cc(-c2nnn[nH]2)c(F)cc1F

IC50 (Cytochrome P450 2C9): 640 nM
microsomal CLint at 1 µM [5]: 125 µL/min/mg
IC50 (Cytochrome P450 2C8): 570 nM
Ki [1]: 7 nM
microsomal CLint at 1 µM [6]: > 1000 µL/min/mg
IC50 (Cytochrome P450 2C19): 680 nM
SMILES: CCCCC(=O)N(Cc1ccc2c(c1)OCCO2)c1cccc(-c2nnn[nH]2)c1

Ki [1]: 8000 nM
SMILES: CCCCC(=O)N(Cc1cccc(OC)c1)c1cccc(C(=O)O)c1

Ki [1]: 1200 nM
SMILES: CCC(=O)N(Cc1ccc(F)cc1)c1cccc(-c2nnn[nH]2)c1

Ki [1]: 5.6 nM
SMILES: CC(C)CC(=O)N(Cc1ccc2c(c1)OCCO2)c1cc(-c2nnn[nH]2)ccc1F

IC50 (Cytochrome P450 2C9): 840 nM
microsomal CLint at 1 µM [5]: 43 µL/min/mg
IC50 (Cytochrome P450 2C8): 320 nM
Ki [1]: 50 nM
microsomal CLint at 1 µM [6]: > 1000 µL/min/mg
IC50 (Cytochrome P450 2C19): 260 nM
SMILES: CCCCC(=O)N(Cc1ccc(OC)cc1)c1cccc(-c2nnn[nH]2)c1

Ki [1]: 4 nM
SMILES: CS(=O)(=O)c1ccc(CN(C(=O)c2cccnc2)c2cc(F)cc(-c3nnn[nH]3)c2)cc1

Ki [1]: 56 nM
SMILES: CCC(=O)N(Cc1ccc2ccccc2n1)c1cc(F)cc(-c2nnn[nH]2)c1

Ki [1]: 4300 nM
SMILES: CCCCC(=O)N(Cc1ccc2c(c1)OCCO2)c1cccc(CC(=O)O)c1

inhibition [2]: 107%
Emax [3]: -11%
IC50 [4]: 64 nM
Ki [1]: 8.2 nM
SMILES: CCC(=O)N(Cc1cccc(OC)c1)c1cc(F)cc(-c2nnn[nH]2)c1

Ki [1]: 28 nM
SMILES: CS(=O)(=O)c1ccc(CN(C(=O)C2CCOCC2)c2cc(F)cc(-c3nnn[nH]3)c2)cc1

Ki [1]: 3 nM
SMILES: CCCCC(=O)N(Cc1ccc(OC)cc1)c1cc(F)cc(-c2nnn[nH]2)c1

Ki [1]: 2.5 nM
SMILES: Cc1ccc(CCC(=O)N(Cc2ccc(S(C)(=O)=O)cc2)c2cc(F)cc(-c3nnn[nH]3)c2)cc1

inhibition [2]: 102%
Emax [3]: -15%
IC50 [4]: 2.8 nM
Ki [1]: 2 nM
SMILES: CCCCC(=O)N(Cc1ccc2c(c1)OCCO2)c1cc(F)cc(-c2nnn[nH]2)c1

Ki [1]: 220 nM
SMILES: CCC(=O)N(Cc1ccc(OC)cc1)c1cccc(-c2nnn[nH]2)c1

inhibition [2]: 110%
Emax [3]: -10%
IC50 [4]: 10 nM
Ki [1]: 3.6 nM
SMILES: CCCCC(=O)N(Cc1ccc(OC)cc1)c1cc(Cl)cc(-c2nnn[nH]2)c1

Ki [1]: 17 nM
SMILES: CC(C)C(=O)N(Cc1ccc(S(C)(=O)=O)cc1)c1cc(F)cc(-c2nnn[nH]2)c1

Ki [1]: 330 nM
SMILES: CCCCC(=O)N(Cc1ccc2cnccc2c1)c1cccc(-c2nnn[nH]2)c1

Ki [1]: 1400 nM
SMILES: CCC(=O)N(Cc1cccc(F)c1)c1cccc(-c2nnn[nH]2)c1

Ki [1]: 44 nM
SMILES: CCCCC(=O)N(Cc1cccc(OC)c1)c1cccc(-c2nnn[nH]2)c1

Ki [1]: 3 nM
SMILES: CCCCC(=O)N(Cc1cccc(OC)c1)c1cc(F)cc(-c2nnn[nH]2)c1
